What follows are compounds tested on Human peripheral blood mononuclear cells (PBMC) (assay: TNFalfa-Release). Conditions: inhibition of TNF-a secretion, PBMC pre-incubated 30 minutes, stimulated 18 hours with lipopolysaccharide.
Assay type: cell-based
Description: Human peripheral blood mononuclear cells (PBMC) are Isolated from buffy coats. The blood is mixed with saline at a ratio of 1:1, and the PBMC is isolated by the use of Lymphoprep Tubes™ (Nycomed, Norway). The PBMC is suspended in RPMI1640 with 2% foetal calf serum (FCS), pen/strep and 2 mM L-glutamine at a concentration of 5×105 c/ml. The cells are pre-incubated for 30 minutes with the test compounds in 96 well tissue culture plates and stimulated for 18 hours with lipopolysaccharide 1 mg/ml (Sigma). The level of TNF-a is measured in the culture supernatant by enzyme immuno assays using primary and secondary biotinylated antibodies from R&D systems. Results are expressed as pIC50 values calculated from inhibition curves using as positive controls the secretion in LPS stimulated wells and as negative controls the secretion in unstimulated cells.
In the case of `CCOc1c(OC)ccc(C(=O)Cc2c(Cl)cncc2Cl)c1OCCc1ccccc1` [Compound 263, 2-(3,5-Dichloro-pyridin-4-yl)-1-(3-ethoxy-4-methoxy-2-phenethyloxy-phenyl)-ethanone], the IC50 is reported as < 1000 nM. `COc1ccc(C(=O)Cc2c(Cl)cncc2Cl)c(OCCCN2C(=O)c3ccccc3C2=O)c1OC` [Compound 186, 2-(3-{6-[2-(3,5-Dichloro-pyridin-4-yl)-acetyl]-2,3-dimethoxy-phenoxy}-propyl)-isoindole-1,3-dione] was tested, and the IC50 was < 1000 nM. For `COc1ccc(C(=O)Cc2c(Cl)cncc2Cl)c(OCC(C)c2ccccc2)c1OC` (stereo not shown) [Compound 284, 2-(3,5-Dichloro-pyridin-4-yl)-1-[3,4-dimethoxy-2-(2-phenyl-propoxy)-phenyl]-ethanone], the IC50 was < 1000 nM. In the case of `COc1ccccc1CNC(=O)COc1c(C(=O)Cc2c(Cl)cncc2Cl)ccc(OC)c1OC` [Compound 218, 2-{6-[2-(3,5-Dichloro-pyridin-4-yl)-acetyl]-2,3-dimethoxy-phenoxy}-N-(2-methoxy-benzyl)-acetamide], the IC50 is reported as < 1000 nM. For `COc1ccc(C(=O)Cc2c(Cl)cncc2Cl)c(OCC(=O)NC2c3ccccc3C[C@H]2O)c1OC` (stereo partly drawn) [Compound 256, (2R)-2-{6-[2-(3,5-Dichloro-pyridin-4-yl)-acetyl]-2,3-dimethoxy-phenoxy}-N-(2-hydroxy-indan-1-yl)-acetamide], the IC50 was < 1000 nM. In the case of `COc1ccc(C(=O)Cc2c(Cl)cncc2Cl)c(OC(C)Cc2ccccc2)c1OC` (stereo not shown) [Compound 285, 2-(3,5-Dichloro-pyridin-4-yl)-1-[3,4-dimethoxy-2-(1-methyl-2-phenyl-ethoxy)-phenyl]-ethanone], the IC50 is reported as < 1000 nM. With `COc1ccc(C(=O)Cc2c(Cl)cncc2Cl)c(OCC(=O)NCc2cccc(F)c2)c1OC` [Compound 238, 2-{6-[2-(3,5-Dichloro-pyridin-4-yl)-acetyl]-2,3-dimethoxy-phenoxy}-N-(3-fluoro-benzyl)-acetamide] the IC50 was < 1000 nM. In the case of `COc1ccc(C(=O)Cc2c(Cl)cncc2Cl)c(OCC(=O)N2CCOCC2)c1OC` [Compound 204, 2-(3,5-Dichloro-pyridin-4-yl)-1-[3,4-dimethoxy-2-(2-morpholin-4-yl-2-oxo-ethoxy)-phenyl]-ethanone], the IC50 is reported as < 1000 nM. `COc1ccc(C(=O)Cc2c(Cl)cncc2Cl)c(OCC(=O)NCCc2ccccc2)c1OC` [Compound 241, 2-{6-[2-(3,5-Dichloro-pyridin-4-yl)-acetyl]-2,3-dimethoxy-phenoxy}-N-phenethyl-acetamide] was tested, and the IC50 was < 1000 nM. For `C=CCOc1c(C(=O)Cc2c(Cl)cncc2Cl)ccc(OC)c1OC` [Compound 114, 1-(2-Allyloxy-3,4-dimethoxy-phenyl)-2-(3,5-dichloro-pyridin-4-yl)-ethanone], the IC50 was < 1000 nM. `COc1ccc(C(=O)Cc2c(Cl)cncc2Cl)c(OCC(=O)NCCCN(C)C)c1OC` [Compound 225, 2-{6-[2-(3,5-Dichloro-pyridin-4-yl)-acetyl]-2,3-dimethoxy-phenoxy}-N-(3-dimethylamino-propyl)-acetamide] was tested, and the IC50 was < 1000 nM. With `COCCNC(=O)COc1c(C(=O)Cc2c(Cl)cncc2Cl)ccc(OC)c1OC` [Compound 223, 2-{6-(2-(3,5-Dichloro-pyridin-4-yl)-acetyl)-2,3-dimethoxy-phenoxy}-N-(2-methoxy-ethyl)-acetamide] the IC50 was < 1000 nM. For `COc1ccc(C(=O)Cc2c(Cl)cncc2Cl)c(OCCOc2ccccc2)c1OC` [Compound 122, 2-(3,5-Dichloro-pyridin-4-yl)-1-[3,4-dimethoxy-2-(2-phenoxy-ethoxy)-phenyl]-ethanone], the IC50 was < 1000 nM. `COc1ccc(C(=O)COc2c(C(=O)Cc3c(Cl)cncc3Cl)ccc(OC)c2OC)cc1` [Compound 146, 2-(3,5-Dichloro-pyridin-4-yl)-1-{3,4-dimethoxy-2-[2-(4-methoxy-phenyl)-2-oxo-ethoxy]-phenyl}-ethanone] was tested, and the IC50 was < 1000 nM. `COc1ccc(C(=O)Cc2c(Cl)cncc2Cl)c(OCc2cccc(OC(F)(F)F)c2)c1OC` [Compound 163, 2-(3,5-Dichloro-pyridin-4-yl)-1-[3,4-dimethoxy-2-(3-trifluoromethoxy-benzyloxy)-phenyl]-ethanone] was tested, and the IC50 was < 1000 nM. In the case of `CCOc1c(OC)ccc(C(=O)Cc2c(Cl)cncc2Cl)c1O` [Compound 262, 2-(3,5-Dichloro-pyridin-4-yl)-1-(3-ethoxy-2-hydroxy-4-methoxy-phenyl)-ethanone], the IC50 is reported as < 1000 nM. In the case of `COc1ccc(C(=O)Cc2c(Cl)cncc2Cl)c(OCC(=O)NC2CCCC2)c1OC` [Compound 211, N-Cyclopentyl-2-{6-[2-(3,5-dichloro-pyridin-4-yl)-acetyl]-2,3-dimethoxy-phenoxy}-acetamide], the IC50 is reported as < 1000 nM. In the case of `COc1ccc(C(=O)Cc2c(Cl)cncc2Cl)c(OCCc2cccnc2)c1OC` [Compound 280, 2-(3,5-Dichloro-pyridin-4-yl)-1-[3,4-dimethoxy-2-(2-pyridin-3-yl-ethoxy)-phenyl]-ethanone], the IC50 is reported as < 1000 nM. In the case of `COc1ccc(C(=O)Cc2c(Cl)cncc2Cl)c(OCC(=O)NCc2ccccc2Cl)c1OC` [Compound 244, N-(2-Chloro-benzyl)-2-{6-[2-(3,5-dichloro-pyridin-4-yl)-acetyl]-2,3-dimethoxy-phenoxy}-acetamide], the IC50 is reported as < 1000 nM. For `CCOC(=O)COc1c(C(=O)Cc2c(Cl)cncc2Cl)ccc(OC)c1OC` [Compound 119, {6-[2-(3,5-Dichloro-pyridin-4-yl)-acetyl]-2,3-dimethoxy-phenoxy}-acetic acid ethyl ester], the IC50 was < 1000 nM. `COc1ccc(C(=O)Cc2c(Cl)cncc2Cl)c(OCC(N)=O)c1OC` [Compound 184, 2-{6-[2-(3,5-Dichloro-pyridin-4-yl)-acetyl]-2,3-dimethoxy-phenoxy}-acetamide] was tested, and the IC50 was < 1000 nM. With `COc1ccc(C(=O)Cc2c(Cl)cncc2Cl)c(OCC(=O)NCC2CCCCCC2)c1OC` [Compound 257, N-Cycloheptylmethyl-2-{6-[2-(3,5-dichloro-pyridin-4-yl)-acetyl]-2,3-dimethoxy-phenoxy}-acetamide] the IC50 was < 1000 nM. For `COc1ccc(C(=O)Cc2c(Cl)cncc2Cl)c(OCc2cccc(C#N)c2)c1OC` [Compound 152, 3-{6-[2-(3,5-Dichloro-pyridin-4-yl)-acetyl]-2,3-dimethoxy-phenoxymethyl}-benzonitrile], the IC50 was < 1000 nM. With `COc1ccc(C(=O)Cc2c(Cl)cncc2Cl)c(OCCc2ccc(C#N)cc2)c1OC` [Compound 278, 4-(2-{6-[2-(3,5-Dichloro-pyridin-4-yl)-acetyl]-2,3-dimethoxy-phenoxy}-ethyl)-benzonitrile] the IC50 was < 1000 nM. In the case of `COc1ccc(C(=O)Cc2c(Cl)cncc2Cl)c(OCC(=O)O)c1OC` [Compound 504, {6-[2-(3,5-Dichloro-pyridin-4-yl)-acetyl]-2,3-dimethoxy-phenoxy}-acetic acid], the IC50 is reported as < 1000 nM. For `COc1ccc(C(=O)Cc2c(Cl)cncc2Cl)c(OCC(=O)Nc2ccccc2)c1OC` [Compound 205, 2-{6-[2-(3,5-Dichloro-pyridin-4-yl)-acetyl]-2,3-dimethoxy-phenoxy}-N-phenyl-acetamide], the IC50 was < 1000 nM. `COc1ccc(C(=O)Cc2c(Cl)cncc2Cl)c(OCCc2ccc(Cl)cc2)c1OC` [Compound 120, 1-{2-[2-(4-Chloro-phenyl)-ethoxy]-3,4-dimethoxy-phenyl}-2-(3,5-dichloro-pyridin-4-yl)-ethanone] was tested, and the IC50 was < 1000 nM. For `C=CCOc1c(OC)ccc(C(=O)Cc2c(Cl)cncc2Cl)c1OCc1ccccc1C#N` [Compound 267, 2-{2-Allyloxy-6-[2-(3,5-dichloro-pyridin-4-yl)-acetyl]-3-methoxy-phenoxymethyl}-benzonitrile], the IC50 was < 1000 nM. With `CCCNC(=O)COc1c(C(=O)Cc2c(Br)cncc2Br)ccc(OC)c1OC` [Compound 293, 2-{6-[2-(3,5-Dibromo-pyridin-4-yl)-acetyl]-2,3-dimethoxy-phenoxy}-N-propyl-acetamide] the IC50 was < 1000 nM. In the case of `COc1ccc(C(=O)Cc2c(Cl)cncc2Cl)c(OCc2nc3ccccc3o2)c1OC` [Compound 115, 1-[2-(Benzooxazol-2-ylmethoxy)-3,4-dimethoxy-phenyl]-2-(3,5-dichloro-pyridin-4-yl)-ethanone], the IC50 is reported as < 1000 nM. For `COc1ccc(C(=O)Cc2c(Cl)cncc2Cl)c(OCCc2ccc(F)cc2)c1OC` [Compound 129, 2-(3,5-Dichloro-pyridin-4-yl)-1-{2-[2-(4-fluoro-phenyl)-ethoxy]-3,4-dimethoxy-phenyl}-ethanone], the IC50 was < 1000 nM. In the case of `CCOc1c(OC)ccc(C(=O)Cc2c(Cl)cncc2Cl)c1OC` [Compound 188, 2-(3,5-Dichloro-pyridin-4-yl)-1-(3-ethoxy-2,4-dimethoxy-phenyl)-ethanone], the IC50 is reported as < 1000 nM. `COc1ccc(C(=O)Cc2c(Cl)c[n+]([O-])cc2Cl)c(OCC(=O)NCc2ccccc2)c1OC` [Compound 270, N-Benzyl-2-{6-[2-(3,5-dichloro-1-oxy-pyridin-4-yl)-acetyl]-2,3-dimethoxy-phenoxy}-acetamide] was tested, and the IC50 was < 1000 nM. For `COc1ccc(C(=O)Cc2c(Cl)cncc2Cl)c(OCCC(C)C)c1OC` [Compound 135, 2-(3,5-Dichloro-pyridin-4-yl)-1-(3,4-dimethoxy-2-(3-methyl-butoxy)-phenyl)-ethanone], the IC50 was < 1000 nM. `COc1ccc(C(=O)Cc2c(Cl)c[n+]([O-])cc2Cl)c(OCCc2ccccc2)c1OC` [Compound 271, 2-(3,5-Dichloro-1-oxy-pyridin-4-yl)-1-(3,4-dimethoxy-2-phenethyloxy-phenyl)-ethanone] was tested, and the IC50 was < 1000 nM. For `COc1ccc(C(=O)Cc2c(Cl)cncc2Cl)c(O)c1OC1CCCC1` [Compound 260, 1-(3-Cyclopentyloxy-2-hydroxy-4-methoxy-phenyl)-2-(3,5-dichloro-pyridin-4-yl)-ethanone], the IC50 was < 1000 nM. `COc1ccc(C(=O)Cc2c(Cl)cncc2Cl)c(OCCc2ccccn2)c1OC` [Compound 279, 2-(3,5-Dichloro-pyridin-4-yl)-1-[3,4-dimethoxy-2-(2-pyridin-2-yl-ethoxy)-phenyl]-ethanone] was tested, and the IC50 was < 1000 nM.

Reference: patent publication US8497380B2, “Substituted acetophenones useful as PDE4 inhibitors” (Leo Pharma A/S, priority 2006, dated 2013)
